Laboratory results taken from patent US12527835B2, “Brevican-binding peptides for brain tumor imaging” (The Brigham and Women's Hospital, Inc., priority 2018, dated 2026).
Where a SMILES comes first, the peptide text is derived from it. [ ]: non-standard residue; d: D form.

Key:
[1] = biological target: T1, recombinant BΔg protein (deglycosylated brevican) (Homo sapiens, UniProt Q96GW7); assay: Octet steady state binding affinity to recombinant BΔg; settings: steady state analysis, Octet RED, peptide up to 10 μM; read-out: KD (dissociation constant) to BΔg protein
T1 construct: purchased R&D Systems 4009-BC-050
T1 sequence (Q96GW7 23-911): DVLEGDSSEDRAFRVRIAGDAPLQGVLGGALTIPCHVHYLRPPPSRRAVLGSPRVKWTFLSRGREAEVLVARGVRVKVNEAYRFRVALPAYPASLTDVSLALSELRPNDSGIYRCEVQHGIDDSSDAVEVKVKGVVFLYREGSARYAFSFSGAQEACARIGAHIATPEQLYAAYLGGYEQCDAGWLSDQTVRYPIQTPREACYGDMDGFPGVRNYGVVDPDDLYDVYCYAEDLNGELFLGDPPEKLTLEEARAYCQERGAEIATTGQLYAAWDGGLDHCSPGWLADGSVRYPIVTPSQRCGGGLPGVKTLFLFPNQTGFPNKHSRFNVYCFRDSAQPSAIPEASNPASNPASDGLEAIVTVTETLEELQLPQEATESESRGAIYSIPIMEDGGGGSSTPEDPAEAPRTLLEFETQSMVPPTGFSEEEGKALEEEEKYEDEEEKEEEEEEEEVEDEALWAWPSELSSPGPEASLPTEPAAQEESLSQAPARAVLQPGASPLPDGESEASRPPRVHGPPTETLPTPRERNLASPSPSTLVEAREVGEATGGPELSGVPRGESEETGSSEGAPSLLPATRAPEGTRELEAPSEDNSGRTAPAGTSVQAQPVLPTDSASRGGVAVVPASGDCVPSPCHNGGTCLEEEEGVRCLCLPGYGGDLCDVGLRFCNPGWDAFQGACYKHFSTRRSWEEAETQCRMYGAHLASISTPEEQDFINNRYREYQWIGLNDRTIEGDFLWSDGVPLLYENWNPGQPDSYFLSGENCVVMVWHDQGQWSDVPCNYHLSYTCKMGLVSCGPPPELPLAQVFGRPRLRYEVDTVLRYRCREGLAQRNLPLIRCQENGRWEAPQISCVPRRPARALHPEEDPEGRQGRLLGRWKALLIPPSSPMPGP
Description: A ForteBio OctetRed384 instrument was used to study the binding kinetics of each peptide to recombinant human brevican (re-suspended in PBS and 0.1 mM EDTA, pH 6.8). The brevican protein was deglycosylated prior to experimental use in water+0.05% tween, PI, sialidase, 0-glycosidase, N-glycosidase in sodium acetate [200 mM], NaCl [250 mM], Tris-HCl [200 mM], pH 7.5.) in the presence of protease inhibitor overnight at 4° C. (this entire composition will be referred to as ‘de-glycosylation buffer’). […] The final volume for all the solutions was 80 μl/well. Assays were performed at 30° C. in solid black 384-well plates (Geiger Bio-One). Prior to beginning, Ni-NTA biosensors were soaked for 10 min in working buffer. Before loading the protein onto each biosensor, a baseline was established in working buffer for 60 s. Deglycosylated brevican (50 μg/ml BΔg; His-tagged) was loaded on the surface of each biosensors for 180 s. […] Reference biosensors were also included in the plate as internal controls, where biosensors were exposed to the ‘de-glycosylation buffer’ lacking brevican protein during the loading step. A 60 s biosensor washing step was applied. Then, biosensors were exposed to the analyte (peptide) in working buffer (ranging between 0-10 μM BTP) for 300 s during the ‘association’ step. Finally, the biosensors were exposed to working buffer (without peptide) during the ‘dissociation’ step for 600 s. Binding affinity of each peptide was assessed through steady state analysis, where the response unit was plotted over peptide concentration. All data was plotted and curves were fitted using the non-linear ‘one-site specific binding’ fit, and the dissociation constant (KD) value was calculated using the GraphPad Prism software.
Binding kinetics analyses were performed using the Octet RED platform (Forte Bio) to measure the binding affinity of BTP-7, 8 and 9 to purified recombinant BΔg protein.

BT188 glioma stem cells = assay: Peptide uptake in BT188 (BΔg-high) versus BT145 (BΔg-low) glioma stem cells, fluorescence imaging; assay type: cell-based, human; settings: fluorescein-labeled peptides, 5 μM
Description: FIGS. 3A-I. Peptide characterization for BΔg specificity in glioma stem cells. (a) Table summary listing the properties of 7 peptides (composed of 8 D-amino acid residues, SEQ ID NOs:3-9, in order of appearance) that were isolated from the OBOC library screen. MW=molecular weight; KD=Kyte-Doolittle scale for amino acid hydropathy (positive scores indicate […]) (Kyte and Doolittle, J. Mol. Biol. 157, 105-132 (1982)). (b) Chemical structure showing the linkage between the peptide and FITC. (c) Western blot analysis showing the level of BΔg and Bcan in human embryo kidney (HEK) cells, and Bcan-overexpressing HEK cells (HEK-Bcan). […] Each group was normalized to a no-blocking (vehicle) control. Statistics were performed using multiple t-tests, and significance was measured in comparison to each vehicle control (p<0.0001). (e) Uptake of fluorescein-labeled BTP-2, 7, 8, 9, and 10 (at 5 μM conc.) in BT188 (BΔg-high) or BT145 (BΔg-low) glioma stem cells (GSCs). Western blot analysis on the top right confirms the BΔg expression level. […] Statistics were performed using the two-way ANOVA and Tukey's Multiple Comparison test. (f) Chemical structure showing the linkage between the peptide and Cy5.5 dye. (g) Western blot analysis showing the expression of BΔg in GBM-6 cells, with negligible BΔg level in astrocytes or neural progenitor cells (NPC). (h) Graph showing the cell uptake ranking of the top 3 peptide candidates, BTP-7, 8 and 9 in GBM-6 cells as determined by flow cytometry analysis with s.d. error bars (5 μM conc.; nevents=20,000 cells; nexperiment=5). Each group is normalized to the control scramble peptide (Scr-8). Statistics were performed using the one-way ANOVA and Tukey's Multiple Comparison test (significance were measured in comparison to the Scr-8 control). (i) Bar graph showing the uptake of BTP-7, 8 and 9 in GBM-6 cells and NPC with 95% confidence interval error bars (1 μM conc.; nevents=20,000 cells). Statistics were performed using the two-way ANOVA and Sidak's Multiple Comparison test.

SMILES: CC[C@@H](C)[C@@H](NC(=O)[C@H](N)[C@H](C)O)C(=O)N[C@H](CCCNC(=N)N)C(=O)N[C@H](CCCCN)C(=O)N[C@H](CC(C)C)C(=O)N[C@@H](C(=O)N[C@H](CCCNC(=N)N)C(=O)N[C@H](Cc1c[nH]cn1)C(N)=O)C(C)C [BTP-8] (H-[dT][dI][dR][dK][dL][dV][dR][dH]-NH2; N-terminus and C-terminus assumed)
- Kd [1]: 1570 nM
- size of the difference in uptake between BT188 and BT145 GSCs (ranking) (BT188 glioma stem cells): largest and most significant difference
- uptake in BT188 GSCs compared with BT145 GSCs (BT188 glioma stem cells): greater uptake
